This is an account of results in patent publication US20250109154A1, “LYSOPHOSPHATIDYLSERINE ANALOGUE, AND LYSOPHOSPHATIDYLSERINE ANALOGUE-CONTAINING PHAMACEUTICAL COMPOSITION FOR TREATING OR PREVENTING FIBROSIS” (THE UNIVERSITY OF TOKYO, priority 2022, published 2025).

In assay [1] the test system is primary cultured human renal fibroblasts. Description: Expression of marker genes for fibrosing in primary cultured human renal fibroblasts (quantitative real time PCR). Conditions: 48 hours. The format is cell-based. The procedure: (§1) Primary cultured human renal fibroblasts (ATCC), primary cultured human lung fibroblasts (Cosmo Bio), or primary cultured human pancreatic fibroblasts (K.A.C.) were each seeded in 12-well tissue culture plates (5×10^4 cells/well) and cultured in Minimum Essential Medium (lx) (Gibco, Thermo Fisher Scientific) together with 10% FBS (Fetal Bovine Serum) and 100× antifungal antibiotic solution (Sigma-Aldrich) in a 5% CO2 humidified incubator at 37° C. After 48 hours, the cells were stimulated with dimethyl sulfoxide (DMSO), Compound (II), and/or Compound (III) (5 μM) (final concentration of DMSO was 0.02%) and co-cultured for another 48 hours. Cells that are activated by TGFβ1 (FUJIFILM Wako Pure Chemical Corporation), a fibroblast growth and activation factor, were stimulated with TGFβ1 (20 ng/ml) 72 hours after seeding, and after 48 hours, the cells were stimulated with dimethyl sulfoxide (DMSO), Compound (II), and/or Compound (III) (5 μM) (final concentration of DMSO was 0.02%) and co-cultured for another 48 hours. Thereafter, the cells were lysed using a lysis buffer (MACHEREY-NAGEL GmbH & Co. KG).
(§2) Quantitative real-time PCR analysis was performed in the same manner as in Example 5.
In general terms: Quantitative PCR measures a nucleic acid by following its amplification.

Assay [2] concerns LX-2 cells (human hepatic stellate cells). Put plainly: Expression of marker genes for fibrosing in LX-2 cells (quantitative real time PCR). The format is cell-based. Conditions: 5 μM, co-cultured 48 hours, vs DMSO, standardized by GAPDH, FIG. 1. The procedure: LX-2 cells (human hepatic stellate cells) (sigma-aldrich, reference document: Gut 2005, 54 (1), 142-151) were seeded in 12-well tissue culture plates (5×10^4 cells/well) and cultured in Dulbecco's Modified Eagle's Medium (high glucose) (Thermo Fisher Scientific) together with 10% FBS (Fetal Bovine Serum) and 100× penicillin-streptomycin-glutamine (PSG) in a 5% CO2 humidified incubator at 37° C. After 48 hours, the cells were stimulated with dimethyl sulfoxide (DMSO), Compound (II), and Compound (III) (5 μM) (final concentration of DMSO was 0.02%) and co-cultured for another 48 hours. Thereafter, the cells were lysed using a lysis buffer (MACHEREY-NAGEL GmbH & Co. KG).
Total RNA of LX-2 cells was extracted using NucleoSpin RNA Plus kit (Takara Bio) according to the product protocol. Purified RNA was reverse transcribed using High-Capacity cDNA RT Kits (Thermo Fisher Scientific) according to the product protocol. PCR was performed using TB Green Premix Ex Taq II (Takara Bio) and monitored with a LightCycler96 (Roche Life Science). The number of transcripts was standardized by the number of GAPDHs, which are housekeeping genes.

Assay [3] deals with primary cultured human lung fibroblasts. Description: Expression of marker genes for fibrosing in primary cultured human lung fibroblasts (quantitative real time PCR). The format is cell-based. The following applies: 48 hours. As for the experimental part:
as §1, §2

Assay [4] deals with primary cultured human skin fibroblasts. Put plainly: Expression of marker genes for fibrosing in primary cultured human skin fibroblasts (quantitative real time PCR). Conditions: 48 hours. The class given is cell-based. The procedure:
Primary cultured human skin fibroblasts (Tokyo University School of Medicine) were seeded in 12-well tissue culture plates (7×10^4 cells/well) and cultured in Dulbecco's Modified Eagle's Medium (high glucose) together with 10% FBS (Fetal Bovine Serum) and 100× penicillin-streptomycin-glutamine (PSG) in a 5% CO2 humidified incubator at 37° C. After 48 hours, the cells were stimulated with dimethyl sulfoxide (DMSO), Compound (II), and Compound (III) (5 μM) (final concentration of DMSO was 0.02%) and co-cultured for another 48 hours. Cells activated with TGFβ1 (FUJIFILM Wako Pure Chemical Corporation) were stimulated with TGFβ1 (20 ng/ml) 72 hours after seeding, and after 48 hours, the cells were stimulated with dimethyl sulfoxide (DMSO), Compound (II), and Compound (III) (5 μM) (final concentration of DMSO was 0.02%) and co-cultured for another 48 hours. Thereafter, the cells were lysed using a lysis buffer (MACHEREY-NAGEL GmbH & Co. KG).
as §2

In assay [5] the test system is primary cultured human pancreatic fibroblasts. Description: Expression of marker genes for fibrosing in primary cultured human pancreatic fibroblasts (quantitative real time PCR). The format is cell-based. The following applies: 48 hours. The procedure: as §1, §2
For assay [6], the system named is LX-2 cells. Put plainly: Immunostaining of αSMA and CollagenI in LX-2 cells. The format is cell-based, human. The following applies: 3 μM, vs DMSO group, FIG. 2. As for the experimental part:
LX-2 cells were cultured in the same manner as in Example 1, except that the concentration of Compound (II) was changed to 3 μM.
LX-2 cells were fixed in Mildform (registered trademark) 10N (FUJIFILM Wako Pure Chemical Corporation) at room temperature for 10 minutes and washed with PBS. Membranes were permeabilized using 0.2% Triton X-100. The cells were blocked at room temperature for one hour using 5% skim milk or 0.3% BSA/PBS. After washing with PBS, αSMA (Dako), CollagenI (Abcam), and Hoechst33342 (Sigma-Aldrich) were each added as a first antibody, and the mixture was reacted overnight at 4° C. On the next day, the cells were washed with PBS and then reacted with Invitrogen Alexa Fluor (theromo Fisher) as a second antibody. The cells were observed under a fluorescence microscope (Keyence BZ-X810).

For assay [7], the system named is mouse model of liver fibrosis. Description: Mouse model of liver fibrosis (thioacetamide): liver immunohistochemistry and quantitative real time PCR. The following applies: TAA mouse, 20 mg/kg subcutaneously every 24 hours for 14 days. The format is in vivo, C57BL/6J mice. As for the experimental part: Seven-week-old C57BL/6J mice were purchased from CLEA Japan, Inc. (Tokyo, Japan). All animals were reared in a standard specific pathogen-free room in the animal facility of the Institute for Quantitative Biosciences, University of Tokyo. For a mouse model of liver fibrosis, thioacetamide (TAA) was administered together with drinking water (0.06% v/v), starting 7 weeks before the administration of the compound. After 7 weeks of rearing with TAA-containing water, a vehicle (200 μL of PBS, containing 5% DMSO) or 20 mg/kg (200 μL of PBS, containing 5% DMSO) of Compound (II) was subcutaneously administered every 24 hours for a total period of 14 days. The mice were sacrificed 24 hours after the last injection.
Liver tissue samples were fixed overnight at 4° C. with Zamboni's fixative (FUJIFILM Wako Pure Chemical Corporation) or Mildform (registered trademark) 10N (FUJIFILM Wako Pure Chemical Corporation). For immunofluorescence staining, the liver tissue fixed with Zamboni's fixative was washed with PBS, and the medium was replaced with a 30% (w/v) sucrose solution. Frozen tissue was prepared by embedding the tissue in a Tissue-Tek (registered trademark) O.C.T. compound (Sakura Finetek Japan) and freezing the resultant in liquid nitrogen. Liver cryosections (8 μm) were mounted on slide glasses, rehydrated, and autoclaved in Target Retrieval Solution (lx, Dako) at 90° C. for 20 min for epitope retrieval. The sections were blocked with 0.3% BSA/PBS for 1 hour at room temperature. After washing with PBS, αSMA (Dako), CollagenI (Bio-Rad Laboratories, Inc.), Ki67 (Santa Cruz), and Hoechst33342 (Sigma-Aldrich) were each added as a first antibody, and the mixture was reacted overnight at 4° C. On the next day, the sections were washed with PBS and then reacted with Invitrogen Alexa Fluor (theromo Fisher) as a second antibody. The section specimens were hermetically sealed and observed with a fluorescence microscope (Keyence BZ-X810). The range of positive CollagenI was quantified using Ratiocollagen I=Areacollagen I/Areatotal.
Total RNA of mouse liver tissue was extracted using NucleoSpin RNA Plus kit (Takara Bio) according to the product protocol. Purified RNA was reverse transcribed using High-Capacity cDNA RT Kits (Thermo Fisher Scientific) according to the product protocol. PCR was performed using TB Green Premix Ex Taq II (Takara Bio) and monitored with a LightCycler96 (Roche Life Science). The number of transcripts was standardized by the number of GAPDHs, which are housekeeping genes.

Assay [8] concerns quiescent hepatic stellate cell-like cells (qHSC-like cells). Description: Expression of marker genes for fibrosing in quiescent hepatic stellate cell-like cells derived from human iPS cells (quantitative real time PCR). The format is cell-based. The following applies: 1 or 2 μM, 4 hours of incubation, FIG. 3. As for the experimental part: Quiescent hepatic stellate cell-like cells (qHSC-like cells) were induced by the methods described in Koui et al., Stem Cell Reports 2021, PCT/JP2020/006147, and PCT/JP2016/58411. qHSC-like cells derived from ACTA2-RFP […] iPS cells were seeded in a collagen-coated 12-well plate at a density of 7×10^4 cells/well in Stempro-34 SFM medium (Gibco medium, theromo Fisher) supplemented with Y27632 (10 μM) and 100×PSG. After 24 hours of culture, Compound (II) was dissolved in Stempro-34 SFM medium (100×PSG), and then the solution was added such that the final concentration of Compound (II) was 1 or 2 μM. After 4 hours of incubation, the cells were lysed, and total RNA was extracted using NucleoSpin RNA Plus kit (Takara Bio).
Total RNA derived from iPS cell-derived qHSC was extracted using NucleoSpin RNA Plus kit (Takara Bio) according to the product protocol. Purified RNA was reverse transcribed using High-Capacity cDNA RT Kits (Thermo Fisher Scientific) according to the product protocol. PCR was performed using TB Green Premix Ex Taq II (Takara Bio) and monitored with a LightCycler96 (Roche Life Science). The number of transcripts was standardized by the number of GAPDHs, which are housekeeping genes.

Where [9] appears, read: not stimulated with TGFβ1, 5 μM, FIG. 7.
Setting [10] is: stimulated with TGFβ1 (20 ng/ml), 5 μM, FIG. 8.
Setting [11] is: not stimulated with TGFβ1, 5 μM, FIG. 9.
The mark [12] stands for this setting: stimulated with TGFβ1 (20 ng/ml), 5 μM, FIG. 10.
[13] abbreviates: not stimulated with TGFβ1, 5 μM, FIG. 13.
[14] abbreviates: stimulated with TGFβ1 (20 ng/ml), 5 μM, FIG. 14.
Setting [15] is: not stimulated with TGFβ1, 5 μM, FIG. 11.
Setting [16] is: stimulated with TGFβ1 (20 ng/ml), 5 μM, FIG. 12.

Take `NC(COP(=O)(O)OCCCOC(=O)CCc1ccccc1Oc1ccc(-c2cc(-c3ccccc3)cc(-c3ccccc3)c2)cc1)C(=O)O` (stereo not drawn) [Compound (III)]: the “expression levels of the marker genes for fibrosing (ACTA2, COL1A1, COL3A1)” value (shortened to “expression levels … (ACTA2, COL1A1, COL3A1)”) in assay [1] (setting [9]), in assay [1] (setting [10]), in assay [2], in assay [3] (setting [11]), in assay [3] (setting [12]) and in assay [4] (setting [13]) was “decreased” in each case. Besides, the “expression levels … (ACTA2, COL1A1, COL3A1)” value in assay [4] (setting [14]), in assay [5] (setting [15]) and in assay [5] (setting [16]) was “decreased” in each case.
`CC(C)(C)c1cc(-c2ccc(Oc3ccccc3CCC(=O)OCCCOP(=O)(O)OCC(N)C(=O)O)cc2)cc(C(C)(C)C)c1` (stereo not drawn) [Compound (II)]: the “expression of αSMA and CollagenI (immunostaining)” value in assay [6] is on record as “suppressed”. Besides, the “expression levels … (ACTA2, COL1A1, COL3A1)” value in assay [1] (setting [9]), in assay [1] (setting [10]), in assay [2], in assay [3] (setting [11]), in assay [3] (setting [12]) and in assay [4] (setting [13]) was “decreased” throughout. Also, the “expression levels … (ACTA2, COL1A1, COL3A1)” value in assay [4] (setting [14]), in assay [5] (setting [15]), in assay [5] (setting [16]) and in assay [8] was “decreased” throughout. Moreover, the “positive range of CollagenI in liver tissue sections (Area collagen I/Area total)” value in assay [7] (vs vehicle, FIG. 4) is “small”. Further, the “Ki67 staining of liver tissue sections (cell proliferation capability)” value in assay [7] (vs vehicle, FIG. 5) is recorded as “larger area stained in red”. For the same molecule, in assay [7] (vs vehicle, FIG. 5), the “expression of αSMA and CollagenI in liver tissue sections (immunostaining)” value is “suppressed”. In addition, in assay [7] (FIG. 6), the “expression levels of the marker genes for fibrosing (COL1A1, COL3A1) in liver tissue” value is reported as “decreased”.
